Data taken from BindingDB's records for doi:10.1124/jpet.103.058636 (National Institutes of Health, 2004).

Target: Sodium-dependent serotonin transporter (Mus musculus, UniProt Q60857)
Sequence (Q60857 whole entry): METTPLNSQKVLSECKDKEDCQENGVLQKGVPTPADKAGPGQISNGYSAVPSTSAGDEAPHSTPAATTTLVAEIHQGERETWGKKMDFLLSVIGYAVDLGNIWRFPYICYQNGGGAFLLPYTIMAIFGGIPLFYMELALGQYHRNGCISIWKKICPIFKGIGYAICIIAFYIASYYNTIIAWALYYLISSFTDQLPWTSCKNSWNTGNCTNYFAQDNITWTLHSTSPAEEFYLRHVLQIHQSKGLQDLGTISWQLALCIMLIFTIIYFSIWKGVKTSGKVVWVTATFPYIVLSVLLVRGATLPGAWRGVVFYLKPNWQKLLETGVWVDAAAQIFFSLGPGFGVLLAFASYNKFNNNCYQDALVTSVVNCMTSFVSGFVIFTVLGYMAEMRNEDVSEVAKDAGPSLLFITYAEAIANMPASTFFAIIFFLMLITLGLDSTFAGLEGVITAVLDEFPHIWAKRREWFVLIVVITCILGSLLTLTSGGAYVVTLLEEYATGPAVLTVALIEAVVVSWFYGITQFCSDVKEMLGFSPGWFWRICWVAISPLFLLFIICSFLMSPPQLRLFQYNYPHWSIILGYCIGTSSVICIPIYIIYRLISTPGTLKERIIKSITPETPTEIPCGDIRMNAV

CCNC(C)Cc1cccc(C(F)(F)F)c1 (stereo unspecified) [NSC_3337]
Ki: 7.05 µM
